Where “and” joins values, the source holds several entries; their conditions need not be identical. Equal values may be shown once. Read-outs that look alike come from different tables or passages of the source.
Columns and labels:
[1] = Cytotoxicity test with MTT method in Vero cells; type: cell-based, African green monkey; conditions: African green monkey, 5 days, read-out: CC50 (50% cytotoxic concentration)
Method: (§1) The cytotoxicity of compounds 1–7 to Vero cells, an epithelial cell line derived from the kidney of an African green monkey, was tested using the 3-(4,5-dimethylthiazol-2-yl)-2,5-diphenyltetrazolium bromide (MTT) method. […] Based on CC20 values, which was the maximum concentration used for antiviral screening, 3b compound was the least toxic with a value of 527.2 µM. Compounds 2a and 2b were the most cytotoxic with values of 8.87 µM and 9.89 µM, respectively. […] The results from compounds 3a, 3b and 4a, 4b ranged from 40.69 to 527.20 µM. […] The presence of phthalimide group or sugar increases the values of CC20 and CC50 (Table 2 and Supplementary Material: Figure S1).
(§2) 96-well plates with 1 × 10^4 cell/well were used in this assay and prepared 24 h previously. The compounds were diluted in a 2:1 ratio so that a maximum of 0.8% DMSO was used. The concentrations used were 800, 400, 200, 100, 50, 25 and 12.5 µM. Dilutions were added to the wells in triplicate and incubated at 37 °C and 5% CO2 atmosphere. After 5 days, the wells were emptied and a 50 µL of 1 mg/mL MTT (3-(4,5-dimethylthiazol-2-yl)-2,5-diphenyltetrazolium bromide) (Sigma-Aldrich) solution was added, and the cells were incubated for 3–4 h for formation of formazan crystals through the mitochondria of viable cells. Then, medium was removed and 100 µL DMSO was added to the wells to solubilize the formazan crystals. With the aid of an incubator Tecnal TE-420 (Tecnal Equipamentos Científicos, Piracicaba, São Paulo, Brazil), the plates were homogenized at 120 RPM at 37 °C and the optical densities were read at 570 nm on a spectrophotometer BioTekTM ELx800TM (BioTek Instruments, Winooski, VT, USA).
(§3) The determination of the CC20 and CC50 values was obtained through the linear regression analysis of the XY graph generated by the values of the concentrations used in the test and the triplicate values of the viability. In the post-infection and pre-treatment tests, ANOVA and Dunnett tests were used, considering […] as the minimum significance value. All tests were performed in GraphPad Prism v.6.0 program (GraphPad Software, Inc., San Diego, CA, USA).

Vero cells [2] = experiment: Cytotoxicity test with MTT method in Vero cells; type: cell-based, African green monkey; conditions: for CC20 (20% cytotoxic concentration): 5 days
Method: as §1, §2, §3

ZIKV = experiment: Post-infection test with ZIKV in Vero cells; type: cell-based, Zika virus
Method: We then investigated the activity of compound 4b after ZIKV infection in cells. As already noted in the screening test, 4b reduced ZIKV growth to levels similar to 6MMPr, a positive control previously described by our group. As in the pre-treatment test, four different concentrations were used, with the maximum being CC20 (136.90, 68.45, 34.22 and 17.11 µM). […] It is worth highlighting the constant decrease in the viral titer, even in lower concentrations, while the positive control 6MMPr reduces it only in the highest concentrations.
Statistical analysis compared the concentrations of each compound at each collection time (3 d.p.i. and 5 d.p.i.) with a t-test.
Figure 6 Comparison of anti-ZIKV activity between 6MMPr and 4b after three- and five-days post-infection (d.p.i.). 6MMPr and compound 4b were submitted to a post-infection test when Vero cells was infected with ZIKV at MOI 0.1 for 2 h then treated with compounds. Concentrations used in the test corresponded to CC20 (4b = 136.90 µM; 6MMPr = 60.50 µM), CC20/2 (4b = 68.45 µM; 6MMPr = 30.25 µM), CC20/4 (4b = 34.22 µM; 6MMPr = 15.13 µM) and CC20/8 (4b = 17.11 µM; 6MMPr = 7.56 µM). The experiment was done in triplicates and values are the mean and the SD. Statistical analysis was made between compounds using t-test on GraphPad Prism program. * = significative; ns = not statistically significant for p < 0.05. (a) 3 d.p.i. from both compounds. (b) 5 d.p.i. from both compounds.
96-well plates with 1 × 10^4 cell/well were used in this assay and prepared 24 h previously. Seven serial dilutions of the virus were prepared in DMEM + 2% FBS culture medium. After removing the culture medium from the plate, 50 µL of each dilution was added to the wells in several repetitions. The plate was incubated at 37 °C and 5% atm CO2 for 1 h. After this interval, each well of the plate received an additional 100 µL of DMEM + 2% FBS culture medium. The plate was incubated again, in the same parameters, for 5 days. Some columns of the plate were selected for use as a cell control (culture medium only, no virus). The reading was performed in an inverted optical microscope AE2000, Motic (Motic, Kowloon Bay, Hong Kong) counting positives wells by the presence of cytopathic effect and the determination of the sample title was performed with the aid of the Microsoft Office Excel program (Microsoft® Office, Redmond, WA, USA).
48-well plates with 2.5 × 10^4 cells/well were prepared 24 h previously. A ZIKV solution at MOI 0.1 was inoculated into the wells and the cells incubated at 37 °C and 5% CO2 atmosphere. After 2 h, the culture medium was removed, and the wells were washed with 1X PBS. 2:1 dilution of 4b (136.90 µM, 68.45 µM, 34.22 µM and 17.11 µM) and 6MMPr (60.50 µM, 30.25 µM, 15.13 µM and 7.56 µM) were added in triplicate. The cells were again incubated for 72 h and 120 h. The supernatants from the wells were collected and titrated.

Vero cells [3] = test system: Vero cells; parameters: method as in PMID 28803932; conditions: ref [17], cited from earlier work
[4] = test system: macrophages (peritoneal and J774A.1) and fibroblast cells; parameters: method as in PMID 33339081; conditions: ref [28]; cited from earlier work

Structure (SMILES)	CC50 at 5 days [1] [µM]	CC20 (20% cytotoxic concentration) (Vero cells [2])	also measured
CC(=O)OC[C@H]1O[C@H](OC(C)(C)c2cn(C3=CC(=O)c4ccccc4C3=O)nn2)C=C[C@@H]1OC(C)=O [Compound 6c]	58.1	25.73 µM	
O=C1C=C(n2cc(CCO)nn2)C(=O)c2ccccc21 [Compound 2a]	38	8.87 µM	
O=C1C=C(NCc2cn(CCN3C(=O)c4ccccc4C3=O)nn2)C(=O)c2ccccc21 [Compound 3b]	1190	527.2 µM and 527.20 µM	
CC(C)(O)c1cn(CCNC2=CC(=O)c3ccccc3C2=O)nn1 [Compound 5b]	298	66.93 µM	concentration until which cells remain viable (Vero cells [2]): ≤ 400 µM
O=C1C=C(NCc2cn(CN3C(=O)c4ccccc4C3=O)nn2)C(=O)c2ccccc21 [Compound 3a]	470	55.28 µM	
CC(C)(O)c1cn(CN2C(=O)c3ccccc3C2=O)nn1 [Compound 1]	680	177.10 µM	
CC(=O)OC[C@H]1O[C@H](OCc2cn(C3=CC(=O)c4ccccc4C3=O)nn2)C=C[C@@H]1OC(C)=O [Compound 6b]	48.7	21.18 µM	
CC(=O)OC[C@H]1O[C@H](OCCc2cn(C3=CC(=O)c4ccccc4C3=O)nn2)C=C[C@@H]1OC(C)=O [Compound 6a]	68	39.92 µM	
CSc1ncnc2c1ncn2[C@@H]1O[C@H](CO)[C@@H](O)[C@H]1O [Compound 6MMPr, 6-methylmercaptopurine riboside, reference compound]			% Viral Inhibition (ZIKV; 3 d.p.i., CC20 (4b 136.90 µM; 6MMPr 60.50 µM)): 99.8%; % Viral Inhibition (ZIKV; 3 d.p.i., CC20/2 (4b 68.45 µM; 6MMPr 30.25 µM)): 54.4%; % Viral Inhibition (ZIKV; 3 d.p.i., CC20/4 (4b 34.23 µM; 6MMPr 15.13 µM)): 42.7%; % Viral Inhibition (ZIKV; 3 d.p.i., CC20/8 (4b 17.11 µM; 6MMPr 7.6 µM), negative = increased virus titer compared to control): −93.4 * %; % Viral Inhibition (ZIKV; 5 d.p.i., CC20 (4b 136.90 µM; 6MMPr 60.50 µM)): 99.7%; % Viral Inhibition (ZIKV; 5 d.p.i., CC20/2 (4b 68.45 µM; 6MMPr 30.25 µM)): 96.8%; % Viral Inhibition (ZIKV; 5 d.p.i., CC20/4 (4b 34.23 µM; 6MMPr 15.13 µM)): 95.1%; % Viral Inhibition (ZIKV; 5 d.p.i., CC20/8 (4b 17.11 µM; 6MMPr 7.6 µM)): 81.1%; % Viral Inhibition (ZIKV; post-infection test, Table 4, concentration and time not stated): 97.8%; IC50 (ZIKV; post-infection test, ZIKV MOI 0.1, Vero cells, read-out: IC50 (50% inhibition concentration, virus replication)): 24.5 µM; effect on growth of the virus (viral titer) (ZIKV; post-infection, four concentrations from CC20 to CC20/8, 3 and 5 d.p.i.): prevents the growth of the virus in both cases; SI (selectivity index) (ZIKV; ratio between the CC50 and IC50 values): 11.9; CC50 (Vero cells [3]; read-out: CC50 (50% cytotoxic concentration)): 291 µM; CC20 (20% cytotoxic concentration) (Vero cells [3]): 60.50 µM and 60.5 µM
O=C1c2ccccc2C(=O)N1CCn1cc(-c2ccccc2)nn1 [4-phenyl-1-[2-(phthalimido-2-yl)ethyl]-1-H-1,2,3-triazole]			cytotoxicity [4]: low cytotoxicity
O=C1C=C(n2cc(CCCO)nn2)C(=O)c2ccccc21 [Compound 2b]	38.8	9.89 µM	
CC(=O)OCC1OC(n2cc(CNC3=C(Br)C(=O)c4ccccc4C3=O)nn2)C(OC(C)=O)C(OC(C)=O)C1OC(C)=O (centres unmarked) [Compound 7]	334	119.10 µM	
O=C1C=C(NCCn2cc(CCCO)nn2)C(=O)c2ccccc21 [Compound 5a, 2-[2-(4-(3-Hydroxypropyl)-1H-1,2,3-triazol-1-yl)]-ethylamino-1,4-naphthoquinone]	294	74.85 µM	concentration until which cells remain viable (Vero cells [2]): ≤ 400 µM; melting point: 143 to 145 °C
O=C1C(Br)=C(NCc2cn(CCCN3C(=O)c4ccccc4C3=O)nn2)C(=O)c2ccccc21 [Compound 4a]	68.8	40.69 µM	
CC(=O)OC[C@H]1O[C@H](OCCCc2cn(C3=CC(=O)c4ccccc4C3=O)nn2)C=C[C@@H]1OC(C)=O [Compound 6d]	69.5	38.61 µM	

Source: paper PMC8510480, “Searching Anti-Zika Virus Activity in 1H-1,2,3-Triazole Based Compounds” (Molecules, 2021)
